Data reported in US6653304B2, “Cannabinoid receptor modulators, their processes of preparation, and use of cannabinoid receptor modulators for treating respiratory and non-respiratory diseases” (Bristol-Myers Squibb Co., priority 2000, dated 2003).

Tested on: human lung epithelial cell lines H292 and A549
Test: Activation of lung epithelial cells
Format: cell-based
Method: (2) Activation of Lung Epithelial Cells
The ability of the cannabinoids to inhibit mucin, chemokine/cytokine production from lung epithelial cells is evaluated with human lung epithelial cell lines H292 and A549. Epithelial cells are cultured overnight in 48 well microtiter plates in complete RMPI […] (200 μl/well) at a density of 2×10^5 cells/ml. The media is removed and replaced with fresh media. Test compounds in 50 μl isotonic buffer are added and incubated for 1 hour at 37° C. Cell activation is triggered by the addition of a stimulatory agent comprising one of EGF, smoke conditioned media, TNF-α or IL-1β. In this assay, the IC50 for Win-55212-2<20 mcM. After a desired period of time (e.g., 24 h) the cell supernatants are removed and assayed for mucin cytokine and chemokines by ELISA. The cannabinoid agonists inhibit mucin and IL-8 production from lung epithelial cells.

`Cc1c(C(=O)c2cccc3ccccc23)c2cccc3c2n1[C@H](CN1CCOCC1)CO3` [Win-55212-2] was tested, and the “activity in the lung epithelial cell assay” value was “demonstrated activity” and the IC50 (stimulated with EGF, smoke conditioned media, TNF-α or IL-1β, mucin, cytokine and chemokines by ELISA) was under 20 µM.
